Laboratory results as given in US20250311727A1, “SUBSTITUTED 2-AMINOAZINES AND SALTS THEREOF, AND USE THEREOF AS HERBICIDAL ACTIVE SUBSTANCES” (BAYER AKTIENGESELLSCHAFT, priority 2022, published 2025).

Assays:
Type in all cases: in vivo
Setaria viridis [1] = experiment: Pre-emergence herbicide efficacy at 320 g/ha, SETVI; conditions: scored visually after about 3 weeks vs untreated controls, 100% = plants have died
In short: (§1)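 Weed seeds were sown in sandy loam, covered with soil, and the soil surface was sprayed with WP- or EC-formulated compound as aqueous suspension/emulsion plus 0.5% additive at 600 L/ha water. Pots stood in a greenhouse; about 3 weeks later efficacy was scored visually as % versus untreated controls (100% = plants dead, 0% = like control).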

Echinochloa crus-galli [2] = experiment: Pre-emergence herbicide efficacy at 80 g/ha, ECHCG; conditions: scored visually after about 3 weeks vs untreated controls, 100% = plants have died
Description: (§2) Unwanted plants/weeds: • ABUTH: Abutilon theophrasti • ALOMY: Alopecurus myosuroides • AMARE: Amaranthus retroflexus • DIGSA: Digitaria sanguinalis • ECHCG: Echinochloa crus-galli • KCHSC: Kochia scoparia • LOLRI: Lolium rigidum • MATIN: Matricaria inodora • POAAN: Poa annua • POLCO: Polygonum convolvulus • SETVI: Setaria viridis • STEME: Stellaria media • VERPE: Veronica persica • VIOTR: Viola tricolor A. Post-Emergence Herbicidal Efficacy at 320 g/ha
(§3) Seeds of monocotyledonous and dicotyledonous weed plants and crop plants were placed in plastic or organic planting pots and covered with soil. The compounds of the invention, formulated in the form of wettable powders (WP) or as emulsion concentrates (EC), were then applied to the surface of the covering soil as aqueous suspension or emulsion with addition of 0.5% additive at a water application rate equivalent to 600 l/ha. After the treatment, the pots were placed in a greenhouse and kept under good growth conditions for the test plants. After about 3 weeks, the efficacy of the preparations was scored visually in comparison with untreated controls as percentages. For example, 100% activity=the plants have died, 0% activity=like control plants.
(§4) Tables D1 to D12 below show the effects of selected compounds of the general formula (I) according to Table 1 on various harmful plants and an application rate corresponding to 80 g/ha, which were obtained by the experimental procedure mentioned above.

Alopecurus myosuroides [3] = experiment: Post-emergence herbicidal efficacy at 80 g/ha, ALOMY; conditions: rated visually after about 3 weeks vs untreated controls, 100% = plants have died
Description: as §2
(§5) Seeds of monocotyledonous and dicotyledonous weeds and crop plants were placed in sandy loam in plastic or organic planting pots, covered with soil and cultivated in a greenhouse under controlled growth conditions. 2 to 3 weeks after sowing, the test plants were treated at the one-leaf stage. The compounds of the invention, formulated in the form of wettable powders (WP) or as emulsion concentrates (EC), were then sprayed onto the green parts of the plants as aqueous suspension or emulsion with addition of 0.5% additive at a water application rate of 600 l/ha (converted). After the test plants had been kept in the greenhouse under optimum growth conditions for about 3 weeks, the activity of the preparations was rated visually in comparison to untreated controls. For example, 100% activity=the plants have died, 0% activity=like control plants.
(§6) Tables B1 to B11 below show the effects of selected compounds of the general formula (I) according to Table 1 on various harmful plants and an application rate corresponding to 80 g/ha, which were obtained by the experimental procedure mentioned above.

Setaria viridis [4] = experiment: Post-emergence herbicidal efficacy at 320 g/ha, SETVI; conditions: rated visually after about 3 weeks vs untreated controls, 100% = plants have died
In short: (§7)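 Effects are visual ratings taken about three weeks after foliar application, scaled from 0% (as untreated control) to 100% (plants died). Application was at the one-leaf stage in greenhouse-grown pots.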

Abutilon theophrasti [5] = experiment: Pre-emergence herbicide efficacy at 320 g/ha, ABUTH; conditions: scored visually after about 3 weeks vs untreated controls, 100% = plants have died
In short: as §1

Kochia scoparia [6] = experiment: Post-emergence herbicidal efficacy at 320 g/ha, KCHSC; conditions: rated visually after about 3 weeks vs untreated controls, 100% = plants have died
In short: as §7

Alopecurus myosuroides [7] = experiment: Pre-emergence herbicide efficacy at 80 g/ha, ALOMY; conditions: scored visually after about 3 weeks vs untreated controls, 100% = plants have died
Description: as §2, §3, §4

Echinochloa crus-galli [8] = experiment: Pre-emergence herbicide efficacy at 320 g/ha, ECHCG; conditions: scored visually after about 3 weeks vs untreated controls, 100% = plants have died
In short: as §1

Amaranthus retroflexus [9] = experiment: Post-emergence herbicidal efficacy at 80 g/ha, AMARE; conditions: rated visually after about 3 weeks vs untreated controls, 100% = plants have died
In short: (§8)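 Weeds grown from seed in sandy loam under controlled greenhouse conditions were sprayed on green parts at the one-leaf stage, 2 to 3 weeks after sowing. WP or EC formulations were applied in water with 0.5% additive at 600 l/ha. Activity was scored visually about 3 weeks later against untreated controls (0% = like control, 100% = dead).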

Veronica persica [10] = experiment: Pre-emergence herbicide efficacy at 320 g/ha, VERPE; conditions: scored visually after about 3 weeks vs untreated controls, 100% = plants have died
In short: as §1

Polygonum convolvulus = experiment: Pre-emergence herbicide efficacy at 80 g/ha, POLCO; conditions: scored visually after about 3 weeks vs untreated controls, 100% = plants have died
In short: (§9)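 Seeds sown in pots and covered with soil; compounds formulated as WP or EC were sprayed onto the soil surface as aqueous suspension/emulsion with 0.5% additive at 600 l/ha water. Pots kept in greenhouse; after about 3 weeks efficacy scored visually as % versus untreated controls (100% = plants died, 0% = like control).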

Kochia scoparia [11] = experiment: Pre-emergence herbicide efficacy at 320 g/ha, KCHSC; conditions: scored visually after about 3 weeks vs untreated controls, 100% = plants have died
In short: as §1

Stellaria media [12] = experiment: Post-emergence herbicidal efficacy at 320 g/ha, STEME; conditions: rated visually after about 3 weeks vs untreated controls, 100% = plants have died
In short: as §7

Abutilon theophrasti [13] = experiment: Pre-emergence herbicide efficacy at 80 g/ha, ABUTH; conditions: scored visually after about 3 weeks vs untreated controls, 100% = plants have died
Description: as §2, §3, §4

Digitaria sanguinalis [14] = experiment: Pre-emergence herbicide efficacy at 320 g/ha, DIGSA; conditions: scored visually after about 3 weeks vs untreated controls, 100% = plants have died
In short: as §1

Veronica persica [15] = experiment: Post-emergence herbicidal efficacy at 80 g/ha, VERPE; conditions: rated visually after about 3 weeks vs untreated controls, 100% = plants have died
In short: as §8

Poa annua [16] = experiment: Post-emergence herbicidal efficacy at 320 g/ha, POAAN; conditions: rated visually after about 3 weeks vs untreated controls, 100% = plants have died
In short: as §7

Viola tricolor [17] = experiment: Post-emergence herbicidal efficacy at 80 g/ha, VIOTR; conditions: rated visually after about 3 weeks vs untreated controls, 100% = plants have died
In short: as §8

Echinochloa crus-galli [18] = experiment: Post-emergence herbicidal efficacy at 320 g/ha, ECHCG; conditions: rated visually after about 3 weeks vs untreated controls, 100% = plants have died
In short: as §7

Viola tricolor [19] = experiment: Pre-emergence herbicide efficacy at 80 g/ha, VIOTR
In short: as §9

Stellaria media [20] = experiment: Pre-emergence herbicide efficacy at 320 g/ha, STEME; conditions: scored visually after about 3 weeks vs untreated controls, 100% = plants have died
In short: as §1

Matricaria inodora = experiment: Pre-emergence herbicide efficacy at 320 g/ha, MATIN; conditions: scored visually after about 3 weeks vs untreated controls, 100% = plants have died
In short: as §1

Digitaria sanguinalis [21] = experiment: Post-emergence herbicidal efficacy at 320 g/ha, DIGSA; conditions: rated visually after about 3 weeks vs untreated controls, 100% = plants have died
In short: as §7

Amaranthus retroflexus [22] = experiment: Post-emergence herbicidal efficacy at 320 g/ha, AMARE; conditions: rated visually after about 3 weeks vs untreated controls, 100% = plants have died
In short: as §7

Setaria viridis [23] = experiment: Pre-emergence herbicide efficacy at 80 g/ha, SETVI
In short: as §9

Poa annua [24] = experiment: Pre-emergence herbicide efficacy at 320 g/ha, POAAN; conditions: scored visually after about 3 weeks vs untreated controls, 100% = plants have died
In short: as §1

Veronica persica [25] = experiment: Post-emergence herbicidal efficacy at 320 g/ha, VERPE; conditions: rated visually after about 3 weeks vs untreated controls, 100% = plants have died
In short: as §7

Veronica persica [26] = experiment: Pre-emergence herbicide efficacy at 80 g/ha, VERPE
In short: as §9

Amaranthus retroflexus [27] = experiment: Pre-emergence herbicide efficacy at 80 g/ha, AMARE; conditions: scored visually after about 3 weeks vs untreated controls, 100% = plants have died
In short: as §9

Alopecurus myosuroides [28] = experiment: Pre-emergence herbicide efficacy at 320 g/ha, ALOMY; conditions: scored visually after about 3 weeks vs untreated controls, 100% = plants have died
Description: as §2
Seeds of mono- and dicotyledonous weed plants were placed in plastic pots in sandy loam soil (doubly sown with one species each of mono- or dicotyledonous weed plants per pot) and covered with soil. The compounds of the invention, formulated in the form of wettable powders (WP) or as emulsion concentrates (EC), were then applied to the surface of the covering soil as aqueous suspension or emulsion with addition of 0.5% additive at a water application rate of 600 litres per hectare (converted). After the treatment, the pots were placed in a greenhouse and kept under good growth conditions for the test plants. After about 3 weeks, the efficacy of the preparations was scored visually in comparison with untreated controls as percentages.
(§10) For example, 100% activity=the plants have died, 0% activity=like control plants.
Tables C1 to C12 below show the effects of selected compounds of the general formula (I) according to Table 1 on various harmful plants and at an application rate corresponding to 320 g/ha, which were obtained by the trial procedure specified above.

Digitaria sanguinalis [29] = experiment: Pre-emergence herbicide efficacy at 80 g/ha, DIGSA; conditions: scored visually after about 3 weeks vs untreated controls, 100% = plants have died
In short: as §9

Digitaria sanguinalis [30] = experiment: Post-emergence herbicidal efficacy at 80 g/ha, DIGSA; conditions: rated visually after about 3 weeks vs untreated controls, 100% = plants have died
Description: as §2, §5, §6

Amaranthus retroflexus [31] = experiment: Pre-emergence herbicide efficacy at 320 g/ha, AMARE; conditions: scored visually after about 3 weeks vs untreated controls, 100% = plants have died
In short: as §1

Alopecurus myosuroides [32] = experiment: Post-emergence herbicidal efficacy at 320 g/ha, ALOMY; conditions: rated visually after about 3 weeks vs untreated controls, 100% = plants have died
Description: as §2
Seeds of mono- and dicotyledonous weed plants were placed in plastic pots in sandy loam soil (doubly sown with in each case one species of mono- or dicotyledonous weed plants per pot), covered with soil and cultivated in a greenhouse under controlled growth conditions. 2 to 3 weeks after sowing, the test plants were treated at the one-leaf stage. The compounds of the invention, formulated in the form of wettable powders (WP) or as emulsion concentrates (EC), were applied to the green parts of the plants as aqueous suspension or emulsion with addition of 0.5% additive at a water application rate equivalent to 600 litres per hectare. After the test plants had been kept in the greenhouse under optimum growth conditions for about 3 weeks, the activity of the preparations was rated visually in comparison to untreated controls.
as §10
Tables A1 to A10 below show the effects of selected compounds of the general formula (I) according to Table 1 on various harmful plants and at an application rate corresponding to 320 g/ha, which were obtained by the trial procedure specified above.

Fc1cnc(Nc2cccc(F)c2-c2cc(C(F)F)no2)nc1 [Example 1-34]
80%: Post-emergence efficacy at 80 g/ha against VIOTR in % (Viola tricolor [17]) | Post-emergence efficacy at 80 g/ha against DIGSA in % (Digitaria sanguinalis [30])
90%: Pre-emergence efficacy at 80 g/ha against ECHCG in % (Echinochloa crus-galli [2]) | Post-emergence efficacy at 320 g/ha against SETVI in % (Setaria viridis [4]) | Pre-emergence efficacy at 80 g/ha against ALOMY in % (Alopecurus myosuroides [7]) | Pre-emergence efficacy at 80 g/ha against POLCO in % (Polygonum convolvulus) | Pre-emergence efficacy at 80 g/ha against ABUTH in % (Abutilon theophrasti [13])
100%: Pre-emergence efficacy at 320 g/ha against SETVI in % (Setaria viridis [1]) | Post-emergence efficacy at 80 g/ha against ALOMY in % (Alopecurus myosuroides [3]) | Pre-emergence efficacy at 320 g/ha against ABUTH in % (Abutilon theophrasti [5]) | Post-emergence efficacy at 320 g/ha against KCHSC in % (Kochia scoparia [6]) | Pre-emergence efficacy at 320 g/ha against ECHCG in % (Echinochloa crus-galli [8]) | Post-emergence efficacy at 80 g/ha against AMARE in % (Amaranthus retroflexus [9]) | Pre-emergence efficacy at 320 g/ha against VERPE in % (Veronica persica [10]) | Pre-emergence efficacy at 320 g/ha against KCHSC in % (Kochia scoparia [11]) | Post-emergence efficacy at 320 g/ha against STEME in % (Stellaria media [12]) | Pre-emergence efficacy at 320 g/ha against DIGSA in % (Digitaria sanguinalis [14]) | Post-emergence efficacy at 80 g/ha against VERPE in % (Veronica persica [15]) | Post-emergence efficacy at 320 g/ha against POAAN in % (Poa annua [16]) | Post-emergence efficacy at 320 g/ha against ECHCG in % (Echinochloa crus-galli [18]) | Pre-emergence efficacy against VIOTR (Viola tricolor [19]) | Pre-emergence efficacy at 320 g/ha against STEME in % (Stellaria media [20]) | Pre-emergence efficacy at 320 g/ha against MATIN in % (Matricaria inodora) | Post-emergence efficacy at 320 g/ha against DIGSA in % (Digitaria sanguinalis [21]) | Post-emergence efficacy at 320 g/ha against AMARE in % (Amaranthus retroflexus [22]) | Pre-emergence efficacy against SETVI (Setaria viridis [23]) | Pre-emergence efficacy at 320 g/ha against POAAN in % (Poa annua [24]) | Post-emergence efficacy at 320 g/ha against VERPE in % (Veronica persica [25]) | Pre-emergence efficacy against VERPE (Veronica persica [26]) | Pre-emergence efficacy at 80 g/ha against AMARE in % (Amaranthus retroflexus [27]) | Pre-emergence efficacy at 320 g/ha against ALOMY in % (Alopecurus myosuroides [28]) | Pre-emergence efficacy at 80 g/ha against DIGSA in % (Digitaria sanguinalis [29]) | Pre-emergence efficacy at 320 g/ha against AMARE in % (Amaranthus retroflexus [31]) | Post-emergence efficacy at 320 g/ha against ALOMY in % (Alopecurus myosuroides [32])
